Experimental data from US20260083864A1, “CONTRAST AGENTS FOR USE IN DIAGNOSTIC COMPUTED TOMOGRAPHY IMAGING” (Bayer Aktiengesellschaft, priority 2022, published 2026).

Assays:
[1] = tested on: freshly isolated rat hepatocytes; assay: Uptake into freshly isolated rat hepatocytes; conditions: for Uptake rat hepatocytes: 100 μmol Gd/L, 10 min, 37° C., relative to RC1 (Gd-EOB-DTPA); for Inhibition Rifampicine: rat hepatocyte uptake, test item and Rifampicine 1:1, each 100 μM
[2] = Complex stability (transmetallation) against Zn2+ in phosphate buffer; conditions: 72 hours, 2.5 mM Zn^2+, 26 mM phosphate buffer, 37° C., pH 7.4
Source text: If test compounds are instable under these conditions, transmetallation during this test would lead to the formation of the Zn^2+ complex of the test item, while Gd^3+ is released and precipitated as highly insoluble GdPO4.

[3] = Relaxivity measurements at 1.41 T in water; format: physicochemical; conditions: 37° C., normalized to Gd
Method in brief: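 T1 by inversion recovery and T2 by CPMG at 1.41 T (60 MHz), 37° C, relaxation delay ≥5×T1. Three Gd concentrations between 0.05 and 2 mM; relaxivities derived from measured relaxation rates in water.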

[4] = Water solubility in aqueous buffer; conditions: aqueous buffer 10 mM Tris-HCl, pH 7.4, 20° C.
Procedure: The solid compounds were added stepwise to the buffer solution. More substance is added once all the suspended material is dissolved until an equilibrium between undissolved and dissolved substance is reached. The suspension was mixed using a shaker (Heidolph Reax 2000) and treated 5 min in an ultrasound bath (Bandelin, Sonorex Super RK255H).

[5] = Relaxivity measurements at 1.41 T in human plasma; format: physicochemical; conditions: 37° C., normalized to Gd
Method in brief: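 T1 determined by inversion recovery (8 inversion-time steps) and T2 by CPMG sequence, both with relaxation delay ≥5×T1. Each relaxivity used three Gd concentrations between 0.05 and 2 mM. Relaxivities were derived from relaxation rates measured in water and plasma.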

[6] = Partition coefficient (log P butanol/buffer); format: physicochemical; conditions: 1-butanol / 50 mM Tris-HCl, pH 7.4, room temperature
OATP1B1 = target: T1, OATP1B1 (Homo sapiens, UniProt Q9Y6L6); assay: Uptake into stable transfected OATP1B1 HEK 293 cells; format: cell-based; conditions: for Uptake into OATP1B1-HEK 293 cells: 40 min incubation, relative to RC1 (Gd-EOB-DTPA); for Inhibition Rifampicine: uptake into OATP1B1-HEK 293 cells
T1 sequence (Q9Y6L6 1-691): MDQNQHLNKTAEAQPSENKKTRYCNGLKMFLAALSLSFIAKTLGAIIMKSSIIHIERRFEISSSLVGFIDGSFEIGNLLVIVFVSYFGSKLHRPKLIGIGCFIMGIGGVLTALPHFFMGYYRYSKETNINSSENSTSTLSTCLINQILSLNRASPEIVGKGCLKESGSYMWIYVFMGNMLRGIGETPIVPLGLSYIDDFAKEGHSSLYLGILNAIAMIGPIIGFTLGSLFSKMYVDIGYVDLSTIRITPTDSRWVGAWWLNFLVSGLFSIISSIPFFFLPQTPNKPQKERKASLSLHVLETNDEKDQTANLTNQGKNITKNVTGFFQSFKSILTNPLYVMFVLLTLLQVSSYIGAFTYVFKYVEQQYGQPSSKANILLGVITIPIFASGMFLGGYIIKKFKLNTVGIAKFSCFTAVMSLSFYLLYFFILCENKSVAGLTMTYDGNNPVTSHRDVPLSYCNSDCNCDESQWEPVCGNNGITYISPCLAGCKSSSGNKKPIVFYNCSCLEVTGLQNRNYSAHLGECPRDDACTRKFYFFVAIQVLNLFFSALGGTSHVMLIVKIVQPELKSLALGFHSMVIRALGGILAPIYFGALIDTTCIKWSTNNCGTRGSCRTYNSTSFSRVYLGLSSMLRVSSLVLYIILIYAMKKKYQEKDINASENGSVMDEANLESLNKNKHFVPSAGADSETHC
Method in brief: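 Stably transfected OATP1B1 HEK293 cells incubated 40 min without shaking with test item at 100 µM final in transport buffer, in triplicate. Cells then washed with cold PBS; gadoxetate run on the same plate as reference.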

OATP1B3 = target: T2, OATP1B3 (Homo sapiens, UniProt Q9NPD5); assay: Uptake into stable transfected OATP1B3 HEK 293 cells; format: cell-based; conditions: for Uptake into OATP1B3-HEK 293 cells: 40 min incubation, relative to RC1 (Gd-EOB-DTPA); for Inhibition Rifampicine: uptake into OATP1B3-HEK 293 cells
T2 sequence (Q9NPD5 1-702): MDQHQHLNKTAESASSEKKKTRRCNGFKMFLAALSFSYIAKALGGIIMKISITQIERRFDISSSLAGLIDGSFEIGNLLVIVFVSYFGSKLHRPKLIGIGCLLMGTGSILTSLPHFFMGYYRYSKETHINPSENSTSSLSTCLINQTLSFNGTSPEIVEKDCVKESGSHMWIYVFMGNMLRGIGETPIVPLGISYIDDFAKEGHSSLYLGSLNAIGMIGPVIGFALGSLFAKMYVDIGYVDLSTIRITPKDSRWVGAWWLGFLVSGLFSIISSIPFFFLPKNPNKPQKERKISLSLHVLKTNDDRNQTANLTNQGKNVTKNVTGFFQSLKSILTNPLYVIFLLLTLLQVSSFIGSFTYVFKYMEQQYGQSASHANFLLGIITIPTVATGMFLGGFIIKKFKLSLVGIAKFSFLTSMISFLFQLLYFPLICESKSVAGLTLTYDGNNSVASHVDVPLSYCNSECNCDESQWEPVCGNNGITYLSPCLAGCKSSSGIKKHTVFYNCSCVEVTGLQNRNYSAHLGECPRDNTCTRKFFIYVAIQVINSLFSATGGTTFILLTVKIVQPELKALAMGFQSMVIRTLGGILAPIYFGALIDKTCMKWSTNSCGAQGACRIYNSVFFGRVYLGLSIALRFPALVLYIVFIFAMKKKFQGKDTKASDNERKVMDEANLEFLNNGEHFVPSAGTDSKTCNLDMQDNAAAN
Method in brief: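 HEK 293 cells stably transfected with human OATP1B3 were incubated for 40 min with test items at 100 μM final in transport buffer, in triplicate, then washed with cold PBS. Gadoxetate (Gd-EOB-DTPA) served as the reference standard on the same plate.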

Row | Structure (SMILES) | Uptake rat hepatocytes [1] | Inhibition Rifampicine [1] | Transmetallation stability [2] | r1 water [3] | Solubility [4] | r1 human plasma [5] | Log P (partition coefficient butanol/buffer) [6] | Uptake into OATP1B1-HEK 293 cells (OATP1B1) | Inhibition Rifampicine (OATP1B1) | Uptake into OATP1B3-HEK 293 cells (OATP1B3) | Inhibition Rifampicine (OATP1B3)
1 | CCOCCOCCOc1ccc(CC(C(=O)O)N2CCN(CC(=O)[O-])CCN(C(C)C(=O)[O-])CCN(CC(=O)[O-])CC2)cc1.[Gd+3] (single isomer, unassigned) [Example 6, gadolinium 2-[7-(1-carboxy-2-{4-[2-(2-ethoxyethoxy)ethoxy]phenyl}ethyl)-4,10-bis(carboxylatomethyl)-1,4,7,10-tetraazacyclododecan-1-yl]propanoate] | 62 % of RC1 | 96 % inhibition | 102% | 4.3 L/mmol/s | >217 mM | 6.6 L/mmol/s | −1.44 | – | – | – | –
2 | CCOCCOc1ccc(CC(C(=O)O)N2CCN(CC(=O)[O-])CCN(C(CC)C(=O)[O-])CCN(CC(=O)[O-])CC2)cc1.[Gd+3] (single isomer, unassigned) [Example 7, gadolinium 2-[7-{1-carboxy-2-[4-(2-ethoxyethoxy)phenyl]ethyl}-4,10-bis(carboxylatomethyl)-1,4,7,10-tetraazacyclododecan-1-yl]butanoate] | 89 % of RC1 | 99 % inhibition | 101% | 4.5 L/mmol/s | >243 mM | 7.4 L/mmol/s | −1.09 | 217 % of RC1 | 91 % inhibition | 76 % of RC1 | 99 % inhibition
3 | CCOCCOc1ccc(CC(C(=O)O)N2CCN(CC(=O)[O-])CCN(C(CC)C(=O)[O-])CCN(CC(=O)[O-])CC2)cc1.[Gd+3] (single isomer, unassigned) [Example 8, gadolinium 2-[7-{1-carboxy-2-[4-(2-ethoxyethoxy)phenyl]ethyl}-4,10-bis(carboxylatomethyl)-1,4,7,10-tetraazacyclododecan-1-yl]butanoate] | 83 % of RC1 | 98 % inhibition | 102% | 4.5 L/mmol/s | 117 mM | 7.2 L/mmol/s | −1.04 | 271 % of RC1 | 90 % inhibition | 90 % of RC1 | 99 % inhibition
4 | CCOCCOCCOc1ccc(C[C@H](C(=O)O)N2CCN(CC(=O)[O-])CCN(CC(=O)[O-])CCN(CC(=O)[O-])CC2)cc1.[Gd+3] [Example 4, gadolinium 2,2′,2″-{10-[(1R)-1-carboxy-2-{4-[2-(2-ethoxyethoxy)ethoxy]phenyl}ethyl]-1,4,7,10-tetraazacyclododecane-1,4,7-triyl}triacetate] | 72 % of RC1 | 98 % inhibition | 100% | 4.2 L/mmol/s | >75 mM | 6.5 L/mmol/s | −1.61 | 126 % of RC1 | 40 % inhibition | 58 % of RC1 | 98 % inhibition
5 | CCOCCOCCOc1ccc(CC(C(=O)O)N2CCN(CC(=O)[O-])CCN(CC(=O)[O-])CCN(CC(=O)[O-])CC2)cn1.[Gd+3] (stereo not shown) [Example 16, gadolinium 2,2′,2″-{10-[1-carboxy-2-{6-[2-(2-ethoxyethoxy)ethoxy]pyridin-3-yl}ethyl]-1,4,7,10-tetraazacyclododecane-1,4,7-triyl}triacetate] | 16 % of RC1 | 92 % inhibition | 101% | 4.4 L/mmol/s | >416 mM | 6.2 L/mmol/s | −1.81 | 66 % of RC1 | 35 % inhibition | 25 % of RC1 | 94 % inhibition
6 | CCOCCOCCOc1ccc(CCCC(C(=O)O)N2CCN(C(CO)C(=O)[O-])CCN(C(CO)C(=O)[O-])CCN(C(CO)C(=O)[O-])CC2)cc1.[Gd+3] (stereo not shown) [Example 17, gadolinium-2,2′,2″-{10-[1-carboxy-4-{4-[2-(2-ethoxyethoxy)ethoxy]phenyl}butyl]-1,4,7,10-tetraazacyclododecane-1,4,7-triyl}tris(3-hydroxypropanoate)] | 71 % of RC1 | 91 % inhibition | 98% | 5.3 L/mmol/s | >217 mM | 10.1 L/mmol/s | – | – | 88 % inhibition | – | 98 % inhibition
7 | CCOCCOCCOc1ccc(CC(C(=O)O)N2CCN(C(CO)C(=O)[O-])CCN(C(CO)C(=O)[O-])CCN(C(CO)C(=O)[O-])CC2)cc1.[Gd+3] (stereo not shown) [Example 22, gadolinium 2,2′,2″-{10-[1-carboxy-2-{4-[2-(2-ethoxyethoxy)ethoxy]phenyl}ethyl]-1,4,7,10-tetraazacyclododecane-1,4,7-triyl}tris(3-hydroxypropanoate)] | 41 % of RC1 | 83 % inhibition | 96% | 5.4 L/mmol/s | >308 mM | 7.7 L/mmol/s | – | 77 % of RC1 | 51 % inhibition | 46 % of RC1 | 96 % inhibition
8 | CCCOc1ccc(CC(C(=O)O)N2CCN(CC(=O)[O-])CCN(CC(=O)[O-])CCN(CC(=O)[O-])CC2)cc1.[Gd+3] (stereo not shown) [Example 48, gadolinium 2,2′,2″-{10-[1-carboxy-2-(4-propoxyphenyl)ethyl]-1,4,7,10-tetraazacyclododecane-1,4,7-triyl}triacetate] | 77 % of RC1 | 98 % inhibition | 99% | 4.0 L/mmol/s | 16 mM | 9.3 L/mmol/s | – | 240 % of RC1 | 92 % inhibition | 11 % of RC1 | 81 % inhibition
